Measured values taken from PubChem BioAssay AID2060491 (Molecular Pharmacology Branch, DTP, NCI, 2025).
Several values for one entry are separate records, joined by “and”; a condition that tells them apart may be missing. Equal entries are not always repeated.

System: 857933-349-R-J2-PDC complex spheroids, viability
Experiment: Anticancer human tumor 857933-349-R-J2-PDC patient-derived colon adenocarcinoma cell line growth inhibition [GQUAD]
Conditions: for viability, T/C: stronger effect = lower value
Description: DNA G-quadruplex Stabilizer Agents in Combinations in Complex Spheroids
A high-throughput screen of multi-cell type tumor spheroids was designed to identify active combinations of DNA G-quadruplex stabilizer agents and targeted small molecules. Complex spheroids include a stromal component modeled by human endothelial cells (HUVEC) and fibroblasts modeled by human mesenchymal stem cells (MSCs). The concentration ranges selected for each drug and investigational agent were based upon clinically achievable concentrations if the clinical Cmax of the agent was known.
Compounds. The drugs and investigational agents: pidnarulex (CX-5461; NSC782164), APTO-253 (NSC789042), BRACO-19 (NSC847499), peposertib (NSC802822), ceralasertib (NSC780249), elimusertib (NSC800525), camonsertib (NSC841442), AZD-1390 (NSC803789), olaparib (NSC753686), talazoparib (NSC767125), ART-558 (NSC835418), sotorasib (NSC818433), MRTX-1133 (NSC836407), SN-38 (NSC673596), topotecan (NSC609699), etoposide (NSC141540), doxorubicin (NSC123127), gemcitabine (NSC613327), 5-fluorouracil (NSC19893), paclitaxel (NSC125973), vemurafenib (NSC761431), panobinostat (NSC761190), R-306465 (JNJ-16241199; NSC773264), adavosertib (NSC754352), TP-3654 (NSC805149), carboplatin (NSC241240), KSQ-4279 (NSC840948), and staurosporine (NSC755774) were obtained from the National Cancer Institute (NCI) Developmental Therapeutics Program Chemical Repository (34). The FDA-approved anticancer drug set is available from the NCI Developmental Therapeutics Program. […] The stock solutions were prepared in dimethyl sulfoxide (DMSO, Sigma-Aldrich, St. Louis, MO, cat. D2650) at 800-fold the tested concentration and stored at -70 degrees C prior to their use. All drugs and investigational agents were tested over a range starting from a high concentration at or near the clinical Cmax and decreasing in half-log increments. If the clinical Cmax for an agent had not been determined, the highest concentration tested was 10 microM.
2.3 Cell Culture. All cells were maintained in an incubator at 37 degrees C and 5% CO2 with 95% humidity. The PDC lines were cultured according to standard operating procedures established by the NCI PDMR. All PDCs were thawed and cultured in Matrigel-coated flasks prepared with a working solution of 1X Ham's F-12 nutrient mix, without supplementation (Invitrogen, cat. 11765054), 100 U/mL penicillin-streptomycin (Invitrogen, cat. 15140122), and 2.5% Matrigel (Corning Inc., cat. 354248) for the first three passages. The 857933-349-R-J2-PDC line was cultured in 6C/Colon 1B media, which includes advanced DMEM/F-12 (Thermo Fisher Scientific, cat. 12634028), 10 mM HEPES (Thermo Fisher Scientific, cat. 15630080), 1X GlutaMAX supplement (Thermo Fisher Scientific, cat. 35050061), 0.1 mg/mL primocin (InvivoGen, cat. ant-pm-2), 10% defined fetal bovine serum, heat inactivated (HyClone Laboratories Inc., cat. SH30070.03HI), 50% L-WRN conditioned media (ATCC, cat. CRL-3276), 1.25 mM N-Acetyl-L-cysteine (Sigma-Aldrich, cat. A9165), 10 mM nicotinamide (Sigma-Aldrich, cat. N0636), 1X B-27 supplement (Thermo Fisher Scientific, cat. 17504044), 1X N-2 supplement (Thermo Fisher Scientific, cat. 17502048), 10 microM Y-27632 dihydrochloride (Tocris Bioscience, cat. 1254), and 50 ng/mL human EGF recombinant protein (Thermo Fisher Scientific, cat. PHG0311). The 485176-168-R4-J1-PDC line was cultured in Panc media, which includes all 6C/Colon 1B media components plus 100 ng/mL human FGF-10 (Thermo Fisher Scientific, cat. 100-26), 500 nM SB-431542 (Selleckchem, cat. S1067), and gastrin (Tocris, cat. 3006).
[…]
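Further: spheroids exposed to compounds for one week before readout.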
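Wherever viability, T/C is given: percent viability relative to vehicle DMSO wells taken as 100%.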

## CC(=O)O[C@H]1C(=O)[C@@]2(C)[C@H]([C@H](OC(=O)c3ccccc3)[C@]3(O)C[C@H](OC(=O)[C@H](O)[C@@H](NC(=O)c4ccccc4)c4ccccc4)C(C)=C1C3(C)C)[C@]1(OC(C)=O)CO[C@@H]1C[C@@H]2O
Compound 0.0316 µM
  viability, T/C: 52.5% and 76.2% and 43.1%
Compound 0.1 µM
  viability, T/C: 16.1% (2×) and 36.9%
Compound 0.316 µM
  viability, T/C: 11.9% and 21.4% and 7.97%
Compound 1 µM
  viability, T/C: 13.3% and 23.7% and 9.54%
Compound 3.16 µM
  viability, T/C: 12% and 23.8% and 9%
Compound 10 µM
  viability, T/C: 13.6% and 25.8% and 10.8%
Curve of compound
  IC50: 34.2 nM and 68.2 nM and < 31.6 nM

## COc1ncnc(C2CC2)c1-c1ncc2cnn(Cc3ccc(-c4nc(C(F)(F)F)cn4C(C)C)cc3)c2n1
Compound 0.0316 µM
  viability, T/C: 101% and 105% and 104%
Compound 0.1 µM
  viability, T/C: 92.3% and 102% and 96%
Compound 0.316 µM
  viability, T/C: 101% and 105% and 104%
Compound 1 µM
  viability, T/C: 93.7% and 103% and 102%
Compound 3.16 µM
  viability, T/C: 104% and 99.2% and 97.6%
Compound 10 µM
  viability, T/C: 102% and 105% and 103%
Curve of compound
  IC50: > 10000 nM

## Cc1cccc(N(C)C(=O)C2C(O)CCN2c2nc(C)cc(C(F)(F)F)c2C#N)c1 (configuration not stated)
Compound 0.0316 µM
  viability, T/C: 104% and 102% and 105%
Compound 0.1 µM
  viability, T/C: 93.1% and 96.1% and 98.8%
Compound 0.316 µM
  viability, T/C: 107% and 103% and 101%
Compound 1 µM
  viability, T/C: 91.1% and 105% and 94.8%
Compound 3.16 µM
  viability, T/C: 114% and 105% and 106%
Compound 10 µM
  viability, T/C: 91.3% and 104% and 91.7%
Curve of compound
  IC50: > 10000 nM

## COc1cccc2c1C(=O)c1c(O)c3c(c(O)c1C2=O)CC(O)(C(=O)CO)CC3OC1CC(N)C(O)C(C)O1 (configuration not stated) + CN(C)c1ccc(Nc2c3ccc(NC(=O)CCN4CCCC4)cc3nc3cc(NC(=O)CCN4CCCC4)ccc23)cc1
Curve of first compound, second compound 0.0316 µM
  IC50: 917 nM
Curve of first compound, second compound 0.1 µM
  IC50: 828 nM
Curve of first compound, second compound 0.316 µM
  IC50: 663 nM
Curve of first compound, second compound 1 µM
  IC50: 711 nM
Curve of first compound, second compound 3.16 µM
  IC50: 739 nM
Curve of first compound, second compound 10 µM
  IC50: 978 nM
Second compound 0.0316 µM, first compound 0.0316 µM
  viability, T/C: 100%
Second compound 0.0316 µM, first compound 0.1 µM
  viability, T/C: 97.1%
Second compound 0.0316 µM, first compound 0.316 µM
  viability, T/C: 76.7%
Second compound 0.0316 µM, first compound 1 µM
  viability, T/C: 52.2%
Second compound 0.0316 µM, first compound 3.16 µM
  viability, T/C: 8.8%
Second compound 0.0316 µM, first compound 10 µM
  viability, T/C: 0.64%
Second compound 0.1 µM, first compound 0.0316 µM
  viability, T/C: 99.2%
Second compound 0.1 µM, first compound 0.1 µM
  viability, T/C: 92.8%
Second compound 0.1 µM, first compound 0.316 µM
  viability, T/C: 79.3%
Second compound 0.1 µM, first compound 1 µM
  viability, T/C: 45.4%
Second compound 0.1 µM, first compound 3.16 µM
  viability, T/C: 9.85%
Second compound 0.1 µM, first compound 10 µM
  viability, T/C: 0.72%
Second compound 0.316 µM, first compound 0.0316 µM
  viability, T/C: 102%
Second compound 0.316 µM, first compound 0.1 µM
  viability, T/C: 95.8%
Second compound 0.316 µM, first compound 0.316 µM
  viability, T/C: 72.7%
Second compound 0.316 µM, first compound 1 µM
  viability, T/C: 37.3%
Second compound 0.316 µM, first compound 3.16 µM
  viability, T/C: 10.8%
Second compound 0.316 µM, first compound 10 µM
  viability, T/C: 0.64%
Second compound 1 µM, first compound 0.0316 µM
  viability, T/C: 103%
Second compound 1 µM, first compound 0.1 µM
  viability, T/C: 86%
Second compound 1 µM, first compound 0.316 µM
  viability, T/C: 76.2%
Second compound 1 µM, first compound 1 µM
  viability, T/C: 39.6%
Second compound 1 µM, first compound 3.16 µM
  viability, T/C: 12.5%
Second compound 1 µM, first compound 10 µM
  viability, T/C: 0.68%
Second compound 3.16 µM, first compound 0.0316 µM
  viability, T/C: 91.6%
Second compound 3.16 µM, first compound 0.1 µM
  viability, T/C: 76.8%
Second compound 3.16 µM, first compound 0.316 µM
  viability, T/C: 73.7%
Second compound 3.16 µM, first compound 1 µM
  viability, T/C: 42.6%
Second compound 3.16 µM, first compound 3.16 µM
  viability, T/C: 11.9%
Second compound 3.16 µM, first compound 10 µM
  viability, T/C: 0.97%
Second compound 10 µM, first compound 0.0316 µM
  viability, T/C: 70.7%
Second compound 10 µM, first compound 0.1 µM
  viability, T/C: 73.4%
Second compound 10 µM, first compound 0.316 µM
  viability, T/C: 67.1%
Second compound 10 µM, first compound 1 µM
  viability, T/C: 50.1%
Second compound 10 µM, first compound 3.16 µM
  viability, T/C: 9.58%
Second compound 10 µM, first compound 10 µM
  viability, T/C: 1.5%

## Nc1ccn(C2OC(CO)C(O)C2(F)F)c(=O)n1 (configuration not stated)
Compound 0.0316 µM
  viability, T/C: 75.3% and 98.5% and 97.2%
Compound 0.1 µM
  viability, T/C: 43.2% and 80.9% and 48.4%
Compound 0.316 µM
  viability, T/C: 45.5% and 58.7% and 54.6%
Compound 1 µM
  viability, T/C: 12.3% and 22.7% and 10.3%
Compound 3.16 µM
  viability, T/C: 8.31% and 14.9% and 6.52%
Compound 10 µM
  viability, T/C: 6.59% and 14.8% and 5.26%
Curve of compound
  IC50: 105 nM and 386 nM and 161 nM

## C#Cc1c(F)ccc2cc(O)cc(-c3ncc4c(N5CC6CCC(C5)N6)nc(OCC56CCCN5CC(F)C6)nc4c3F)c12 (configuration not stated)
Compound 0.0316 µM
  viability, T/C: 94.6% and 101% and 111%
Compound 0.1 µM
  viability, T/C: 93.3% and 94.7% and 99.7%
Compound 0.316 µM
  viability, T/C: 93.6% and 91.5% and 99.1%
Compound 1 µM
  viability, T/C: 69.2% and 83.1% and 96.8%
Compound 3.16 µM
  viability, T/C: 75.5% and 70.2% and 97.1%
Compound 10 µM
  viability, T/C: 70% and 66.5% and 97.9%
Curve of compound
  IC50: > 10000 nM
